# Test results reported in patent US8802597B2, “Herbicidal pyrimidines” (E I du Pont de Nemours and Company, priority 2003, dated 2014).
# Tests used:
# Type in all cases: in vivo
# [1] = test system: Surinam grass (Brachiaria decumbens); assay: Test C pre/postemergence; details: for Surinam Grass plant response rating: scale 0 to 100 (0 no effect, 100 complete control)
# Summary of the method: (§1)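 Test compounds, formulated in a non-phytotoxic solvent mix with surfactant, were applied to freshly planted seeds and, at the same time, to emerged plants at 1- to 4-leaf stage (2 to 18 cm). After 12 to 14 days in the greenhouse, response was scored visually versus controls, 0 = no effect, 100 = complete control.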
# [2] = test system: common (oilseed) sunflower (Helianthus annuus); assay: Test C pre/postemergence; details: Preemergence
# Summary of the method: as §1
# [3] = test system: common ragweed (Ambrosia elatior); assay: Test C pre/postemergence; details: for Ragweed plant response rating: scale 0 to 100 (0 no effect, 100 complete control)
# Summary of the method: as §1
# [4] = test system: giant foxtail (Setaria faberii); assay: Test C pre/postemergence; details: for Foxtail, Giant plant response rating: scale 0 to 100 (0 no effect, 100 complete control)
# Summary of the method: as §1
# [5] = test system: johnsongrass (Sorghum halepense); assay: Test C pre/postemergence
# Summary of the method: as §1
# kochia (Kochia scoparia) = assay: Test C pre/postemergence; details: for Kochia plant response rating: scale 0 to 100 (0 no effect, 100 complete control); for Plant response rating, Kochia: scale 0 to 100
# Summary of the method: as §1
# [6] = test system: morningglory (Ipomoea coccinea); assay: Test C pre/postemergence; details: for Morningglory plant response rating: scale 0 to 100 (0 no effect, 100 complete control)
# Summary of the method: as §1
# [7] = test system: pigweed (Amaranthus retroflexus); assay: Test C pre/postemergence; details: for Pigweed plant response rating: scale 0 to 100 (0 no effect, 100 complete control)
# Summary of the method: as §1
# soybean (Glycine max) = assay: Test C pre/postemergence; details: for Soybean plant response rating: scale 0 to 100 (0 no effect, 100 complete control)
# Summary of the method: as §1
# [8] = test system: woolly cupgrass (Eriochloa villosa); assay: Test C pre/postemergence; details: for Cupgrass, Woolly plant response rating: scale 0 to 100 (0 no effect, 100 complete control)
# Summary of the method: as §1
# [9] = test system: yellow nutsedge (Cyperus esculentus); assay: Test C pre/postemergence; details: for Nutsedge, Yellow plant response rating: scale 0 to 100 (0 no effect, 100 complete control)
# Summary of the method: as §1
# [10] = test system: chickweed (Stellaria media); assay: Test C postemergence; details: for Chickweed plant response rating: scale 0 to 100 (0 no effect, 100 complete control)
# Summary of the method: as §1
# [11] = Postemergence, 250 g ai/ha, scale 0 to 100
# [12] = Postemergence, 500 g ai/ha, scale 0 to 100
# [13] = Preemergence, 62 g ai/ha, scale 0 to 100, 0 no effect, 100 complete control
# [14] = Preemergence, 125 g ai/ha, scale 0 to 100
# [15] = Preemergence, 250 g ai/ha, scale 0 to 100
# [16] = Preemergence, 500 g ai/ha, scale 0 to 100
structure (smiles),measurement,setting,value
CN(C)N=Cc1nc(C2CC2)nc(N)c1Br [Compound 50],Surinam Grass plant response rating,"[1]; Postemergence, 62 g ai/ha",0
same,Surinam Grass plant response rating,"[1]; Postemergence, 125 g ai/ha",0
same,"Plant response rating, Surinam Grass",[1]; [11],0
same,"Plant response rating, Surinam Grass",[1]; [12],60
same,"Plant response rating, Surinam Grass",[1]; [13],0
same,"Plant response rating, Surinam Grass",[1]; [14],15
same,"Plant response rating, Surinam Grass",[1]; [15],65
same,"Plant response rating, Surinam Grass",[1]; [16],85
same,"Plant response rating, Sunflower","[2]; 62 g ai/ha, scale 0 to 100, 0 no effect, 100 complete control",15
same,"Plant response rating, Sunflower","[2]; 125 g ai/ha, scale 0 to 100",55
same,"Plant response rating, Sunflower","[2]; 250 g ai/ha, scale 0 to 100",95
same,"Plant response rating, Sunflower","[2]; 500 g ai/ha, scale 0 to 100",100
same,Ragweed plant response rating,"[3]; Postemergence, 62 g ai/ha",20
same,Ragweed plant response rating,"[3]; Postemergence, 125 g ai/ha",45
same,"Plant response rating, Ragweed",[3]; [11],45
same,"Plant response rating, Ragweed",[3]; [12],80
same,"Plant response rating, Ragweed",[3]; [13],70
same,"Plant response rating, Ragweed",[3]; [14],85
same,"Plant response rating, Ragweed",[3]; [15],95
same,"Plant response rating, Ragweed",[3]; [16],100
same,"Foxtail, Giant plant response rating","[4]; Postemergence, 62 g ai/ha",0
same,"Foxtail, Giant plant response rating","[4]; Postemergence, 125 g ai/ha",0
same,"Plant response rating, Foxtail, Giant",[4]; [11],0
same,"Plant response rating, Foxtail, Giant",[4]; [12],20
same,"Plant response rating, Foxtail, Giant",[4]; [13],0
same,"Plant response rating, Foxtail, Giant",[4]; [14],0
same,"Plant response rating, Foxtail, Giant",[4]; [15],0
same,"Plant response rating, Foxtail, Giant",[4]; [16],70
same,Johnsongrass plant response rating,"[5]; Postemergence, 62 g ai/ha, scale 0 to 100 (0 no effect, 100 complete control)",0
same,"Plant response rating, Johnsongrass",[5]; [12],60
same,"Plant response rating, Johnsongrass",[5]; [13],0
same,"Plant response rating, Johnsongrass",[5]; [14],55
same,"Plant response rating, Johnsongrass",[5]; [15],65
same,"Plant response rating, Johnsongrass",[5]; [16],85
same,Kochia plant response rating,"kochia (Kochia scoparia); Postemergence, 62 g ai/ha",20
same,Kochia plant response rating,"kochia (Kochia scoparia); Postemergence, 125 g ai/ha",55
same,"Plant response rating, Kochia","kochia (Kochia scoparia); Postemergence, 250 g ai/ha",65
same,"Plant response rating, Kochia","kochia (Kochia scoparia); Postemergence, 500 g ai/ha",95
same,"Plant response rating, Kochia","kochia (Kochia scoparia); Preemergence, 125 g ai/ha",0
same,"Plant response rating, Kochia","kochia (Kochia scoparia); Preemergence, 250 g ai/ha",20
same,"Plant response rating, Kochia","kochia (Kochia scoparia); Preemergence, 500 g ai/ha",90
same,Morningglory plant response rating,"[6]; Postemergence, 62 g ai/ha",65
same,Morningglory plant response rating,"[6]; Postemergence, 125 g ai/ha",80
same,"Plant response rating, Morningglory",[6]; [11],85
same,"Plant response rating, Morningglory",[6]; [12],95
same,"Plant response rating, Morningglory",[6]; [13],80
same,"Plant response rating, Morningglory",[6]; [14],95
same,"Plant response rating, Morningglory",[6]; [15],95
same,"Plant response rating, Morningglory",[6]; [16],100
same,Pigweed plant response rating,"[7]; Postemergence, 62 g ai/ha",75
same,Pigweed plant response rating,"[7]; Postemergence, 125 g ai/ha",80
same,"Plant response rating, Pigweed",[7]; [11],85
same,"Plant response rating, Pigweed",[7]; [12],95
same,"Plant response rating, Pigweed",[7]; [13],75
same,"Plant response rating, Pigweed",[7]; [14],90
same,"Plant response rating, Pigweed",[7]; [15],95
same,"Plant response rating, Pigweed",[7]; [16],100
same,Soybean plant response rating,"soybean (Glycine max); Postemergence, 62 g ai/ha",95
same,Soybean plant response rating,"soybean (Glycine max); Postemergence, 125 g ai/ha",95
same,"Plant response rating, Soybean",soybean (Glycine max); [11],100
same,"Plant response rating, Soybean",soybean (Glycine max); [12],100
same,"Plant response rating, Soybean",soybean (Glycine max); [13],0
same,"Plant response rating, Soybean",soybean (Glycine max); [14],60
same,"Plant response rating, Soybean",soybean (Glycine max); [15],75
same,"Plant response rating, Soybean",soybean (Glycine max); [16],90
same,"Cupgrass, Woolly plant response rating","[8]; Postemergence, 62 g ai/ha",0
same,"Cupgrass, Woolly plant response rating","[8]; Postemergence, 125 g ai/ha",0
same,"Plant response rating, Cupgrass, Woolly",[8]; [11],15
same,"Plant response rating, Cupgrass, Woolly",[8]; [12],30
same,"Plant response rating, Cupgrass, Woolly",[8]; [13],0
same,"Plant response rating, Cupgrass, Woolly",[8]; [14],0
same,"Plant response rating, Cupgrass, Woolly",[8]; [15],0
same,"Plant response rating, Cupgrass, Woolly",[8]; [16],40
same,"Nutsedge, Yellow plant response rating","[9]; Postemergence, 62 g ai/ha",0
same,"Nutsedge, Yellow plant response rating","[9]; Postemergence, 125 g ai/ha",0
same,"Plant response rating, Nutsedge, Yellow",[9]; [11],0
same,"Plant response rating, Nutsedge, Yellow",[9]; [12],0
same,"Plant response rating, Nutsedge, Yellow",[9]; [13],0
same,"Plant response rating, Nutsedge, Yellow",[9]; [14],0
same,"Plant response rating, Nutsedge, Yellow",[9]; [15],0
same,"Plant response rating, Nutsedge, Yellow",[9]; [16],0
same,Chickweed plant response rating,[10]; 62 g ai/ha,0
same,Chickweed plant response rating,[10]; 125 g ai/ha,0
same,"Plant response rating, Chickweed","[10]; 500 g ai/ha, scale 0 to 100",20
